Assay results from patent US8865721B2, “Delta opioid receptor agonist compounds” (priority 2001, dated 2014).
“Also recorded” adds a separate entry of the source. Where two headings read alike, the source gives them in different places.

Legend:
[1] = tested on: male CD-1 mice, electrically stimulated ejaculation; experiment: electroejaculation test in conscious male mice (bipolar rectal probe); assay type: in vivo, mouse; conditions: for Effective Dose / Ejaculation Inhibition % / Max. ejaculation Inhibition / Optimal Dose: male mice; for Effective Dose / Ejaculation Inhibition %: oral; for Ejaculation Inhibition %: at the effective dose; for Max. ejaculation Inhibition / Optimal Dose: subcutaneous injection; for Max. ejaculation Inhibition: at the optimal dose; for Optimal Dose: dose giving max. ejaculation inhibition
Experimental: To investigate the efficacy of delta opioid receptor agonists as a treatment for premature ejaculation, intact conscious male mice were electrically stimulated subsequent to the administration of a delta opioid receptor agonist to determine if a delay in ejaculation was observed when compared to administration of a placebo
Male, CD-1 mice (20-30 g) were housed in groups of ten (10) in Plexiglas® chambers with food and water available before any procedure. Animals were maintained on a 12 hour light/dark cycle in a temperature-controlled animal colony. Studies were carried out in accordance with the Guide for the Care and Use of Laboratory animals as adopted and promulgated by the National Institutes of Health.
Specifically, the bipolar electrode probe is an approximately 5 cm long tube having an outer diameter of approximately 0.25 cm with an inner diameter of approximately 0.08. In the center lumen of the elongated tubular body 12 are embedded cathode 16 and anode 18, which are formed of a conductive material, preferably platinum. The cathode 16 and anode 18 are connected at one end to external power supplying means (not shown). Anode 18 extends at the other end all the way to one extremity of the elongated body 12 and forming an anode terminal 22 at such extremity. Cathode 16 only extends to a middle portion of the elongated body 12 and forming a cathode terminal 20 at such middle portion. The cathode terminal 20 is preferably positioned away from the anode terminal 22, at a distance of about 0.5 cm.
The testing delta opioid receptor agonist (SNC-80) was purchased from Tocris Cookson, Inc., Ellisville, Mo., USA, and dissolved in 5% dextrose injection solution. An equimolar amount of aqueous hydrochloric acid was added when the manufacturer packaged the compound in its base form. The placebo was 5% dextrose alone. Each mouse was injected subcutaneously with […] of the SNC-80 compound or with 10 mg/kg of a placebo. 10 minutes after the injection, the test mouse was subjected to electrostimulation. Ten mice were tested for each dose level, the order of each mouse receiving different doses was blinded and in a random manner.
During the testing the mouse was restrained in a cone bag with rear legs extending from the bag. Excess fecal matter was removed from the rectum and the above-discussed lubricated bipolar electrode was inserted approximately 2.5 cm into the rectum. […] The stimulation regime included 4 stimulating events for each voltage lasting 2 seconds with a rest period of 2 seconds between stimulating events until ejaculation occurred or the terminal voltage of 8 volts was reached. A white coagulum ejaculate from the penis indicates a successful ejaculation.
For the electroejaculation test, dose-response lines were constructed as an accumulated ejaculation at a specified voltage. A minimum of 10 mice was used at each dose level. Each dose response was the average of two to three independent experiments. Students' t-test was used to assess unpaired comparison, with […] indicating significance.
Testing was conducted on mice injected with SNC-80 or a buffer vehicle for the control group. […] Each mouse was subjected to electroejaculation at 40 Hz (starting at 3 volts with a gradual increase to 8 volts by increments of 0.5 volts) approximately 10 minutes after subcutaneous administration of SNC-80 at different doses of 0, 0.1, 0.3 and 1 mg/kg. A minimum of 10 mice were used at each dose level. Each does response was the average of two to three independent experiments±SEM.
To determine if SNC-80 inhibits the ejaculation via specific binding to delta opioid receptor, the effect of SNC-80 on ejaculation was tested against the delta opioid selective antagonist naltrindole (NTI). Subcutaneous injections of a control vehicle (CTL), 0.5 mg/kg SNC-80, 0.5 mg/kg SNC-80 plus 0.1 mg/kg of NTI and 0.1 mg/kg of NTI were administered to the mice. A minimum of 10 mice was utilized for each dose level. […]

[2] = biological target: κ opioid receptor (Homo sapiens, UniProt P41145); experiment: radio-ligand competition binding assay, κ
[3] = biological target: delta opioid receptor (Homo sapiens, UniProt P41143); experiment: radio-ligand competition binding assay, δ
[4] = biological target: μ opioid receptor (Homo sapiens, UniProt P35372); experiment: radio-ligand competition binding assay, μ
[5] = tested on: mouse vas deferens; experiment: in vitro inhibition of electrically stimulated contraction of mouse vas deferens in tissue bath
[6] = tested on: mouse vas deferens; conditions: background statement; cited from earlier work
[7] = radio-ligand competition binding per U.S. Pat. Nos. 5,985,880 and 5,807,858, read-out: κ binding affinity
[8] = radio-ligand competition binding per U.S. Pat. Nos. 5,985,880 and 5,807,858, read-out: δ binding affinity

Row | Compound | Effective Dose [1] | Ejaculation Inhibition % [1] | Max. ejaculation Inhibition [1] | Optimal Dose [1] | EC50 [5] | other results
1 | CCN(CC)C(=O)c1ccc([C@H](c2cccc(OC)c2)N2C[C@@H](C)N(Cc3ccccc3F)C[C@@H]2C)cc1 [Example 39, 4-((alpha-R)-alpha-((2S,5R)-2,5-Dimethyl-4-(2-fluorobenzyl)-1-piperazinyl)-3-methoxybenzyl)-N,N-diethylbenzamide] | 10 mg/kg | 50% | – | – | – | –
2 | CCN(CC)C(=O)c1ccc([C@H](c2cccc(OCC(=O)O)c2)N2C[C@@H](C)N(Cc3ccccc3)C[C@@H]2C)cc1 [Example 15, 3-((alpha-R)-alpha-((2S,5R)-4-Benzyl-2,5-dimethyl-1-piperazinyl)-4-(diethylaminocarbonyl)benzyl)phenoxyacetic acid] | 3 mg/kg | 66% | – | – | – | –
3 | CCN(CC)C(=O)c1ccc([C@H](c2ccccc2)N2C[C@@H](C)N(Cc3ccc(O)cc3)C[C@@H]2C)cc1 [Example 37, 4-((alpha-S)-alpha-((2S,5R)-2,5-Dimethyl-4-(4-hydroxybenzyl)-1-piperazinyl)-benzyl)-N,N-diethylbenzamide] | 3 mg/kg | 50% | – | – | – | –
4 | C=CCN1C[C@@H](C)N([C@H](c2ccc(S(=O)(=O)N(C)C)cc2)c2cccc(O)c2)C[C@@H]1C [Example 40, 4-[(R)-((2R,5S)-4-Allyl-2,5-dimethylpiperazin-1-yl)(3-hydroxyphenyl)methyl]-N,N-dimethylbenzenesulfonamide] | 0.3 mg/kg | 50% | – | – | – | –
5 | 4-(alpha-R)-alpha-((2S,5R)-4-(Cyclopropylmethyl)-2,5-dimethyl-1-piperazinyl)-3-hydroxybenzyl)-N,N-diethylbenzamide [Example 35] | 0.3 mg/kg | 60% | – | – | – | –
6 | C=CCN1C[C@H](C)N([C@H](c2ccc(C(=O)N(CC)CC)cc2)c2cccc(OCC(=O)O)c2)C[C@H]1C [Example 14, 3-((alpha-R)-alpha-((2S,5R)-4-Allyl-2,5-dimethyl-1-piperazinyl)-4-(diethylamino-carbonyl)benzyl)phenoxyacetic acid] | 0.01 mg/kg | 45% | 35% | 10 mg/kg | 7.2 nM | Ki [2]: > 100 nM; Ki [3]: 11.1 nM; Ki ([4]; radio-ligand competition binding per U.S. Pat. Nos. 5,985,880 and 5,807,858, read-out: μ binding affinity): 162 nM
7 | CCN(CC)C(=O)c1ccc([C@H](c2cccc(O)c2)N2C[C@@H](C)N(Cc3cccc(F)c3)C[C@@H]2C)cc1 [Example 36, 4-((alpha-R)-alpha-((2S,5R)-2,5-Dimethyl-4-(3-fluorobenzyl)-1-piperazinyl)-3-hydroxybenzyl)-N,N-diethylbenzamide] | 3 mg/kg | 60% | – | – | – | –
8 | CCN(CC)C(=O)c1ccc([C@H](c2cccc(O)c2)N2C[C@@H](C)N(Cc3ccc(C(=O)O)cc3)C[C@@H]2C)cc1 [Example 13, 4-{(2R,5S)-4-[(R)-(4-Diethylcarbamoylphenyl)(3-hydroxyphenyl)methyl]-2,5-dimethylpiperazin-1-ylmethyl)benzoic acid] | – | – | 50% | 5 mg/kg | 21.2 nM | Ki [2]: > 100 nM; Ki [3]: 5.69 nM; Ki [4]: 3470 nM
9 | CCN(CC)C(=O)c1cccc([C@H](c2cccc(O)c2)N2C[C@@H](C)N(Cc3cccc(O)c3)C[C@@H]2C)c1 [Example 17, N,N-Diethyl-3-((R)-((2S,5R)-2,5-dimethyl-4-(3-hydroxybenzyl)piperazin-1-yl)(3-hydroxyphenyl)methyl)benzamide] | – | – | 50% | 1 mg/kg | 2.9 nM | Ki [2, 7]: 20.9 nM; Ki [3, 8]: 0.66 nM; Ki [4]: 1.28 nM
10 | Oc1ccc2c3c1O[C@H]1c4[nH]c5ccccc5c4C[C@@]4(O)[C@@H](C2)N(CC2CC2)CC[C@]314 [NTI, naltrindole, reference compound] | – | – | – | – | – | ejaculation response, antagonist alone ([1]; 0.1 mg/kg subcutaneous, 35 Hz, FIG. 4): did not affect the ejaculation response
11 | CCN(CC)C(=O)c1ccc([C@H](c2cccc(OC)c2)N2C[C@@H](C)N(Cc3ccccc3)C[C@@H]2C)cc1 [Example 38] | 3 mg/kg | 33% | – | – | – | –
12 | CCN(CC)C(=O)c1ccc([C@H](c2cccc(O)c2)N2C[C@@H](C)N(Cc3ccccc3)C[C@@H]2C)cc1 [Example 12, 4-((alpha-R)-alpha-((2S,5R)-4-Benzyl-2,5-dimethyl-1-piperazinyl)-3-hydroxybenzyl)-N,N-diethylbenzamide] | – | – | 28% | 5 mg/kg | 4.4 nM | Ki [2, 7]: 68.7 nM; Ki [3, 8]: 0.123 nM; Ki [4]: 1.45 nM
13 | CCN(CC)C(=O)c1ccc([C@H](c2cccc(O)c2)N2C[C@@H](C)N(Cc3ccc(F)cc3)C[C@@H]2C)cc1 [Example 11, 4-((alpha-R)-alpha-((2S,5R)-2,5-Dimethyl-4-(4-fluorobenzyl)-1-piperazinyl)-3-hydroxybenzyl)-N,N-diethylbenzamide] | – | – | 30% | 5 mg/kg | 2.8 nM | Ki [2, 7]: > 100 nM; Ki [3, 8]: 1.23 nM; Ki [4]: 27.1 nM
14 | CCN(CC)C(=O)c1ccc([C@H](c2ccccc2)N2C[C@H](C)N(Cc3cccc(F)c3)C[C@H]2C)cc1 [Example 41, 4-((alpha-S)-alpha-((2R,5S)-2,5-Dimethyl-4-(3-fluorobenzyl)-1-piperazinyl)benzyl)-N,N-diethylbenzamide] | 0.4 mg/kg | 75% | – | – | – | –
15 | C=CCN1C[C@H](C)N([C@H](c2ccc(C(=O)N(CC)CC)cc2)c2cccc(OC)c2)C[C@H]1C [SNC-80, reference compound] | – | – | – | – | – | contraction of mouse vas deferens smooth muscle in vitro [6]: block the contraction of mouse vas deferens smooth muscle in vitro; inhibitory effect on ejaculation at reduced dose ([1]; 0.1 mg/kg subcutaneous, 40 Hz, FIG. 3): inhibitory effect diminished; inhibitory effect on ejaculation with co-injected antagonist ([1]; 0.5 mg/kg SNC-80 plus 0.1 mg/kg NTI subcutaneous, 35 Hz, FIG. 4): abolished; also recorded: inhibitory effect was blocked; reduction of ejaculation (factor) ([1]; 0.5 mg/kg subcutaneous, 35 Hz, 10 minutes after injection, FIG. 4): at least 2; occurrence of ejaculation versus control group ([1]; 1 mg/kg subcutaneous, 40 Hz, 10 minutes after injection, FIG. 3): significantly reduced the occurrence of ejaculation
16 | CCN(CC)C(=O)c1ccc([C@H](c2cccc(OC)c2)N2C[C@@H](C)N(Cc3ccc(F)cc3)C[C@@H]2C)cc1 [Example 29, 4-((alpha-R)-alpha-((2S,5R)-2,5-Dimethyl-4-(4-fluorobenzyl)-1-piperazinyl)-3-methoxybenzyl)-N,N-diethylbenzamide] | 3 mg/kg | 38% | – | – | – | –
